# Starred links: 1 amine or outer side, 2 acyl side, 3 side chain; linkers in the order of their positions; H or OH if unused. Positions of bridges follow the written chain, without caps; N, C: chain ends. Non-standard residues stand in square brackets, D forms with d. Residues, ends and D or L forms follow the SMILES beside them. Hag = O=C([C@H](CCC=[*:3])N[*:1])[*:2]; Phe(3-F) = N[C@@H](Cc1cccc(F)c1)C(=O)O; AllylGly = C=CC[C@H](N)C(=O)O; Orn = NCCC[C@H](N)C(=O)O; Ac4c = NC1(C(=O)O)CCC1
# Molecular target: T1, Menin/Histone-lysine N-methyltransferase MLL (Homo sapiens, UniProt O00255)
# Assay: Inhibition of Menin-MLL protein-protein interaction (unknown origin) preincubated for 1 hr in presence of FLSN-MBM1 peptide followed by compound addition and measured after 1 hr by fluorescence polarization assay
# T1 sequence (O00255 whole entry): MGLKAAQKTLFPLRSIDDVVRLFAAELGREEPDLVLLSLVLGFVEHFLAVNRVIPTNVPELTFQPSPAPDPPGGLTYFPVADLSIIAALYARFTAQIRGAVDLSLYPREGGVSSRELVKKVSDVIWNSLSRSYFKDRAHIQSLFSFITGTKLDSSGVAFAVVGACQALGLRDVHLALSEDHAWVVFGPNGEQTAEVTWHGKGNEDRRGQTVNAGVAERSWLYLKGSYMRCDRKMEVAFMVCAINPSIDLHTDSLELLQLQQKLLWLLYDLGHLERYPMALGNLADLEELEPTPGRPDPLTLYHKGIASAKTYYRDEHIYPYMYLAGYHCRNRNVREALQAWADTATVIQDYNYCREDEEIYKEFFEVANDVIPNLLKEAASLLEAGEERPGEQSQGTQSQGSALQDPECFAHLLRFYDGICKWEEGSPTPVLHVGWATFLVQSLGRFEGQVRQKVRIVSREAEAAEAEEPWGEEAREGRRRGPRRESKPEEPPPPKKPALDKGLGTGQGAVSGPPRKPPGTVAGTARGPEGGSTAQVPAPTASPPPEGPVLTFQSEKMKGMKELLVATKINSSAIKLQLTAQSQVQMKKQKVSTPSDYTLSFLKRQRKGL
# T1 sequence (Q03164 1-2718 partner limits assumed): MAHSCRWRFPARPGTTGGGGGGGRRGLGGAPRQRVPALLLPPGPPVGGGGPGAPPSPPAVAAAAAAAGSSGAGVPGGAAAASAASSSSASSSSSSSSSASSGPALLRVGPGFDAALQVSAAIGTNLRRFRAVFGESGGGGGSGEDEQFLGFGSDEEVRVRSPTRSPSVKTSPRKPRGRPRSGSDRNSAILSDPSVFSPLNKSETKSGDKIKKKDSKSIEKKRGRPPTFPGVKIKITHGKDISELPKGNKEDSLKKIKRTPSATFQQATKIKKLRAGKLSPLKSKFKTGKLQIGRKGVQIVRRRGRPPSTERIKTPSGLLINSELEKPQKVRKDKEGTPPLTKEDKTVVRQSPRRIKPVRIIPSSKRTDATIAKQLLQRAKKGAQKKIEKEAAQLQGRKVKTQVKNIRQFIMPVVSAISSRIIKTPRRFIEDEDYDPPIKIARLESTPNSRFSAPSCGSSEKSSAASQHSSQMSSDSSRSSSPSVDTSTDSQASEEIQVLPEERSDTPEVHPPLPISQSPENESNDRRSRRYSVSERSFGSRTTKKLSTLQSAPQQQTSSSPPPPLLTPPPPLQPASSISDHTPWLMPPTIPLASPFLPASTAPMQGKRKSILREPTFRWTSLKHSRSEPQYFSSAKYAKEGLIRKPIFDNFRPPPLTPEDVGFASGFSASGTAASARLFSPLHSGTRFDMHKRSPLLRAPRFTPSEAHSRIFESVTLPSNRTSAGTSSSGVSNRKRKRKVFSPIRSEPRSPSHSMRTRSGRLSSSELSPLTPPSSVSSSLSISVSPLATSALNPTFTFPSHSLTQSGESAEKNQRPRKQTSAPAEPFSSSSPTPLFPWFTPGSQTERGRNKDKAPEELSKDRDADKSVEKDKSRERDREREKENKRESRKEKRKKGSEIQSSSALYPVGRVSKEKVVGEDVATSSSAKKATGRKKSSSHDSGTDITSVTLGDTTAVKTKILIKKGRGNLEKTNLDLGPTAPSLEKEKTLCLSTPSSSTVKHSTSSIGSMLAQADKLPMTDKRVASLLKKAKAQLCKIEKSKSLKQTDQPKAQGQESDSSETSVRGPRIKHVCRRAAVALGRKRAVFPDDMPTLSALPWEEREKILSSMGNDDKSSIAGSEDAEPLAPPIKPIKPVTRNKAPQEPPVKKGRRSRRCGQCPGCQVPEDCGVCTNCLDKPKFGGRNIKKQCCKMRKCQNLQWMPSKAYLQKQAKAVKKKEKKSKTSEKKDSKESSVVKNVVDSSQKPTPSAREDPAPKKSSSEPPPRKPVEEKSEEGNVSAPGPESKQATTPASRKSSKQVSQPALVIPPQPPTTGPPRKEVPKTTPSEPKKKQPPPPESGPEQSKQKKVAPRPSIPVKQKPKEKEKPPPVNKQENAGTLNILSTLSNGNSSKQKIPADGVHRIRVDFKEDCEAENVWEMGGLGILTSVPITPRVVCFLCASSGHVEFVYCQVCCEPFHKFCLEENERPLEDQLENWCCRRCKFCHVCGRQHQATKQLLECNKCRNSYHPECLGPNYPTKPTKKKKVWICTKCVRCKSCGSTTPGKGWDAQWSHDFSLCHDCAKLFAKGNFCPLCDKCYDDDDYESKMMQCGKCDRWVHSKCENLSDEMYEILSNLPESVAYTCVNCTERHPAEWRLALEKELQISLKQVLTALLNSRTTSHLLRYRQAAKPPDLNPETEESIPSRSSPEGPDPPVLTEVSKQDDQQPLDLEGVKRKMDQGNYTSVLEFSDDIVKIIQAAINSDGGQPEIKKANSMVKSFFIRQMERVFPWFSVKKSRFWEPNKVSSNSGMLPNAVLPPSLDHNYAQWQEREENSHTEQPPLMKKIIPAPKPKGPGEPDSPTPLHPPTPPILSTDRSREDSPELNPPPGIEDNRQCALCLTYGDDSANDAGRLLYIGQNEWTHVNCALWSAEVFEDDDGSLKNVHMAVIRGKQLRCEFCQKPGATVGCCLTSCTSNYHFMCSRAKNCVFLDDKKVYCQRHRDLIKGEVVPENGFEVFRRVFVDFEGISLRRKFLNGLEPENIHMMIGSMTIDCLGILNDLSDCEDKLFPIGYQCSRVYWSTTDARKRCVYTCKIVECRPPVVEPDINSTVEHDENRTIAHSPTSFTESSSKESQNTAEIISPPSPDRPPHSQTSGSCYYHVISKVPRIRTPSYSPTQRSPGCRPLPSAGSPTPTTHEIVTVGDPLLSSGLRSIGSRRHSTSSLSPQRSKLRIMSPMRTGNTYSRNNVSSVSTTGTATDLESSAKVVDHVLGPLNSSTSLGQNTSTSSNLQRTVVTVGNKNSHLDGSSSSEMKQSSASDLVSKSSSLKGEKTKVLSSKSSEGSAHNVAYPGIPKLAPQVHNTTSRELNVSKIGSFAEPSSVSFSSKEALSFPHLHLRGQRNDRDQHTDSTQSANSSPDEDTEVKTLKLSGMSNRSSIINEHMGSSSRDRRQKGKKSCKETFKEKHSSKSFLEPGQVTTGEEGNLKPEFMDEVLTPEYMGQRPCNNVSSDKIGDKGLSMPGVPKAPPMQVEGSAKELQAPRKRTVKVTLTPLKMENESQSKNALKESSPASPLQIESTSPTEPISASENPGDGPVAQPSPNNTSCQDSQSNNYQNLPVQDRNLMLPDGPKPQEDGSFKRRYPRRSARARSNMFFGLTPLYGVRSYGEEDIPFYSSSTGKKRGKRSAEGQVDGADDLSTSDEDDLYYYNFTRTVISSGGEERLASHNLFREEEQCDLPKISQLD
# T1 sequence (Q03164 2719-3969 partner limits assumed): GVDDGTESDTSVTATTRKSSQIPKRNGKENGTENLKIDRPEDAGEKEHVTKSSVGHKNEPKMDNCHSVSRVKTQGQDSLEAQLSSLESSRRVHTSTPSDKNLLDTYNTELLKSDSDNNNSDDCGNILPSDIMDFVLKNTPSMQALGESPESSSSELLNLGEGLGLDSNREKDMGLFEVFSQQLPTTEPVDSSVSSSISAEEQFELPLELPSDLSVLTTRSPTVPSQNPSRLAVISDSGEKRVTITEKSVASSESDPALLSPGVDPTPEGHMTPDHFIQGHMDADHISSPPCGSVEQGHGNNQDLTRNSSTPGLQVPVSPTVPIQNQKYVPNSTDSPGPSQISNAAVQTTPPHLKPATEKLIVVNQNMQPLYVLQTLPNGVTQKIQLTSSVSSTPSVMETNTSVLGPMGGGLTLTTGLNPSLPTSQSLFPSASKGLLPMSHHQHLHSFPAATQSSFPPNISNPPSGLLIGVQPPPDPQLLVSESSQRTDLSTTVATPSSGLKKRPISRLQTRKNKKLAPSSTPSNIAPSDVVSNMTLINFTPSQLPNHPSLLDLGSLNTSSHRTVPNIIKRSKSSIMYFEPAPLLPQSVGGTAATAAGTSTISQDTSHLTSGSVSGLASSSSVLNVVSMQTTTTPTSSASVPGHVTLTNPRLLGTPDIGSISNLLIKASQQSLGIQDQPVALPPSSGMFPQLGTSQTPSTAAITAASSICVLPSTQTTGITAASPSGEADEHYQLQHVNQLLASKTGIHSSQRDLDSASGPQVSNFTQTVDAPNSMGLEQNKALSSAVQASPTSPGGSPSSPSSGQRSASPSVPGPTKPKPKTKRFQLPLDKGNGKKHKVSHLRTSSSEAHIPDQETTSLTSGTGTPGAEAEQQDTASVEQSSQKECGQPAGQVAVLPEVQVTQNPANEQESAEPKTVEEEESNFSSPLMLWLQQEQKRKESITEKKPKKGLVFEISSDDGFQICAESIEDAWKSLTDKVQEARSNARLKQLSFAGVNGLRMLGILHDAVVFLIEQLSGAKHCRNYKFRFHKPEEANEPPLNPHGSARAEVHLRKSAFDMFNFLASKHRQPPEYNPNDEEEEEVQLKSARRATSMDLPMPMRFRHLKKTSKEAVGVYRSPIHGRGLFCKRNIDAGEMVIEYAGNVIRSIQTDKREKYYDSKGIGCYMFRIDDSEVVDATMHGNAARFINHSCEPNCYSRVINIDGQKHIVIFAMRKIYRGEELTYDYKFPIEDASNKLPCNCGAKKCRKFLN
row,Compound,IC50 [nM]
1,CC(=O)N[C@@H](CO)C(=O)N[C@@H](C)C(=O)N[C@@H](CCCNC(=N)N)C(=O)N[C@@H](Cc1c[nH]c2ccccc12)C(=O)N[C@H]1C/C=C\C[C@@H](C(=O)N2CCC[C@H]2C(N)=O)NC(=O)[C@H](C)NC(=O)[C@@H]2CCCN2C(=O)[C@H](Cc2ccccc2)NC1=O (Ac-SARW[AllylGly]FPA[AllylGly]P-NH2; staple (Z) 5-9),6800
2,CC(=O)N[C@@H](CO)C(=O)N[C@@H](C)C(=O)N[C@@H](CCCNC(=N)N)C(=O)N[C@@H](Cc1c[nH]c2ccccc12)C(=O)N[C@H]1C/C=C\C[C@@H](C(=O)N2CCC[C@H]2C(=O)NCC(=O)N[C@H](C(N)=O)[C@@H](C)O)NC(=O)[C@H](C)NC(=O)[C@@H]2CCCN2C(=O)[C@H](Cc2ccccc2)NC1=O (Ac-SARW[AllylGly]FPA[AllylGly]PGT-NH2; staple (Z) 5-9),41000
3,CC(=O)N[C@@H](CO)C(=O)N[C@@H](C)C(=O)N[C@@H](CCCNC(=N)N)C(=O)N[C@@H](Cc1c[nH]c2ccccc12)C(=O)N[C@H]1C/C=C\C[C@@H](C(=O)N2CCC[C@H]2C(=O)N[C@@H](CCCNC(=N)N)C(=O)N[C@H](C(N)=O)[C@@H](C)O)NC(=O)[C@H](C)NC(=O)[C@@H]2CCCN2C(=O)[C@H](Cc2ccccc2)NC1=O (Ac-SARW[AllylGly]FPA[AllylGly]PRT-NH2; staple (Z) 5-9),1800
4,CC(=O)N[C@@H](CO)C(=O)N[C@@H](C)C(=O)N[C@@H](CCCNC(=N)N)C(=O)N[C@@H](Cc1c[nH]c2ccccc12)C(=O)N[C@H]1C/C=C\CC[C@@H](C(=O)N2CCC[C@H]2C(=O)N[C@@H](CCCNC(=N)N)C(N)=O)NC(=O)[C@H](C)NC(=O)[C@@H]2CCCN2C(=O)[C@H](Cc2ccccc2)NC1=O (Ac-SARW[AllylGly]FPA[Hag]PR-NH2; staple (Z) 5-9),3000
5,CC(=O)N[C@@H](Cc1c[nH]c2ccccc12)C(=O)N[C@H]1C/C=C\C[C@@H](C(=O)N2CCC[C@H]2C(=O)N[C@@H](CCCNC(=N)N)C(N)=O)NC(=O)[C@H](C)NC(=O)[C@@H]2CCCN2C(=O)[C@H](Cc2ccccc2)NC1=O (Ac-W[AllylGly]FPA[AllylGly]PR-NH2; staple (Z) 2-6),77700
6,Ac-SARWAFPAAP-NH2,19000
7,Ac-SARWAFPAAPGT-NH2,61300

# Now from value to compound:
row,IC50 [nM],Compound
1,1700,Ac-SARWAFPAAPRT-NH2
2,1390,CC(=O)N[C@@H](CO)C(=O)N[C@@H](C)C(=O)N[C@@H](CCCNC(=N)N)C(=O)N[C@@H](Cc1c[nH]c2ccccc12)C(=O)N[C@H]1C/C=C\C[C@@H](C(=O)N2CCC[C@H]2C(=O)N[C@@H](CCCCN)C(N)=O)NC(=O)[C@H](C)NC(=O)[C@@H]2CCCN2C(=O)[C@H](Cc2ccccc2)NC1=O (Ac-SARW[AllylGly]FPA[AllylGly]PK-NH2; staple (Z) 5-9)
3,1300,Ac-SARWAFPAGPR-NH2
4,1100,CC(=O)N[C@@H](CO)C(=O)N[C@@H](C)C(=O)N[C@@H](CCCNC(=N)N)C(=O)N[C@@H](Cc1c[nH]c2ccccc12)C(=O)N[C@H]1CC/C=C\CC[C@@H](C(=O)N2CCC[C@H]2C(=O)N[C@@H](CCCNC(=N)N)C(N)=O)NC(=O)[C@H](C)NC(=O)[C@@H]2CCCN2C(=O)[C@H](Cc2ccccc2)NC1=O (Ac-SARW[Hag]FPA[Hag]PR-NH2; staple (Z) 5-9)
5,770,CC(=O)N[C@@H](CO)C(=O)N[C@@H](C)C(=O)N[C@@H](CCCNC(=N)N)C(=O)N[C@@H](Cc1c[nH]c2ccccc12)C(=O)N[C@H]1C/C=C\C[C@@H](C(=O)N2CCC[C@H]2C(=O)N[C@@H](CCCNC(=N)N)C(N)=O)NC(=O)[C@H](C)NC(=O)[C@@H]2CCCN2C(=O)[C@H](Cc2ccccc2)NC1=O (Ac-SARW[AllylGly]FPA[AllylGly]PR-NH2; staple (Z) 5-9)
6,660,CC(=O)N[C@@H](CO)C(=O)N[C@@H](C)C(=O)N[C@@H](CCCNC(=N)N)C(=O)N[C@@H](Cc1c[nH]c2ccccc12)C(=O)N[C@H]1CCCCCC[C@@H](C(=O)N2CCC[C@H]2C(=O)N[C@@H](CCCNC(=N)N)C(N)=O)NC(=O)[C@H](C)NC(=O)[C@@H]2CCCN2C(=O)[C@H](Cc2ccccc2)NC1=O
7,372,CC(=O)N[C@@H](CCCNC(=N)N)C(=O)N[C@@H](Cc1c[nH]c2ccccc12)C(=O)N[C@H]1C/C=C\C[C@@H](C(=O)N2CCC[C@H]2C(=O)N[C@@H](CCCNC(=N)N)C(N)=O)NC(=O)[C@H](C)NC(=O)[C@@H]2CCCN2C(=O)[C@H](Cc2ccccc2)NC1=O (Ac-RW[AllylGly]FPA[AllylGly]PR-NH2; staple (Z) 3-7)
8,281,CC(=O)N[C@@H](CO)C(=O)N[C@@H](C)C(=O)N[C@@H](CCCNC(=N)N)C(=O)N[C@@H](Cc1c[nH]c2ccccc12)C(=O)N[C@H]1C/C=C\C[C@@H](C(=O)N2CCC[C@H]2C(=O)N[C@@H](CCCNC(=N)N)C(N)=O)NC(=O)[C@H](C)NC(=O)[C@@H]2CCCN2C(=O)[C@H](Cc2cccc(F)c2)NC1=O (Ac-SARW[AllylGly][Phe(3-F)]PA[AllylGly]PR-NH2; staple (Z) 5-9)
9,151,CC(=O)N[C@@H](C)C(=O)N[C@@H](CCCNC(=N)N)C(=O)N[C@@H](Cc1c[nH]c2ccccc12)C(=O)N[C@H]1C/C=C\C[C@@H](C(=O)N2CCC[C@H]2C(=O)N[C@@H](CCCNC(=N)N)C(N)=O)NC(=O)[C@H](C)NC(=O)[C@@H]2CCCN2C(=O)[C@H](Cc2ccccc2)NC1=O (Ac-ARW[AllylGly]FPA[AllylGly]PR-NH2; staple (Z) 4-8)
10,142,CC(=O)N[C@@H](CO)C(=O)N[C@@H](C)C(=O)N[C@@H](CCCNC(=N)N)C(=O)N[C@@H](Cc1c[nH]c2ccccc12)C(=O)N[C@H]1C/C=C\C[C@@H](C(=O)N2CCC[C@H]2C(=O)N[C@@H](CCCN)C(N)=O)NC(=O)[C@H](C)NC(=O)[C@@H]2CCCN2C(=O)[C@H](Cc2ccccc2)NC1=O (Ac-SARW[AllylGly]FPA[AllylGly]P[Orn]-NH2; staple (Z) 5-9)
11,122,CC(=O)N[C@@H](CO)C(=O)N[C@@H](C)C(=O)N[C@@H](CCCNC(=N)N)C(=O)N[C@@H](Cc1c[nH]c2ccccc12)C(=O)N[C@H]1CCCC[C@@H](C(=O)N2CCC[C@H]2C(=O)N[C@@H](CCCNC(=N)N)C(N)=O)NC(=O)[C@H](C)NC(=O)[C@@H]2CCCN2C(=O)[C@H](Cc2ccccc2)NC1=O
12,83,CC(=O)N[C@@H](CO)C(=O)N[C@@H](C)C(=O)N[C@@H](CCCNC(=N)N)C(=O)N[C@@H](Cc1c[nH]c2ccccc12)C(=O)N[C@H]1C/C=C\C[C@@H](C(=O)N2CCC[C@H]2C(=O)N[C@@H](CCCNC(=N)N)C(N)=O)NC(=O)C2(CCC2)NC(=O)[C@@H]2CCCN2C(=O)[C@H](Cc2ccccc2)NC1=O (Ac-SARW[AllylGly]FP[Ac4c][AllylGly]PR-NH2; staple (Z) 5-9)

# Molecular target: T1, Menin/Histone-lysine N-methyltransferase MLL
# Assay: Inhibition of Menin-MLL protein-protein interaction (unknown origin) preincubated for 1 hr in presence of FLSN-MLL4-43 peptide followed by compound addition and measured after 1 hr by fluorescence polarization assay
row,IC50 [nM],Compound
1,14,CC(=O)N[C@@H](C)C(=O)N[C@@H](CCCNC(=N)N)C(=O)N[C@@H](Cc1c[nH]c2ccccc12)C(=O)N[C@H]1CCCC[C@@H](C(=O)N2CCC[C@H]2C(=O)N[C@@H](CCCN)C(=O)N[C@@H](CCCNC(=N)N)C(N)=O)NC(=O)C2(CCC2)NC(=O)[C@@H]2CCCN2C(=O)[C@H](Cc2cccc(F)c2)NC1=O
2,569,CC(=O)N[C@@H](CO)C(=O)N[C@@H](C)C(=O)N[C@@H](CCCNC(=N)N)C(=O)N[C@@H](Cc1c[nH]c2ccccc12)C(=O)N[C@H]1CCCC[C@@H](C(=O)N2CCC[C@H]2C(=O)N[C@@H](CCCN)C(N)=O)NC(=O)C2(CCC2)NC(=O)[C@@H]2CCCN2C(=O)[C@H](Cc2cccc(F)c2)NC1=O

# — ChEMBL document CHEMBL4765443, “Covalent and noncovalent constraints yield a figure eight-like conformation of a peptide inhibiting the menin-MLL interaction” (Eur J Med Chem, 2020)
